Experimental data as given in PMC12368060 (Communications Biology, 2025).
Square brackets hold non-standard residues; d marks the D form. Peptide text beside a SMILES is read from it. * marks the point of attachment. FITC = O=C1OC2(c3ccc(O)cc3Oc3cc(O)ccc32)c2ccc(NC(=S)*)cc21; pS = N[C@@H](COP(=O)(O)O)C(=O)O; Ahx = NCCCCCC(=O)O

Target: GST-LC3B (Homo sapiens, UniProt Q9GZQ8)
Experiment: Surface plasmon resonance
Format: binding
Conditions: read-out: kon (on-rate)

CC[C@H](C)[C@H](NC(=O)[C@H](CCC(=O)O)NC(=O)[C@@H](NC(=O)[C@H](Cc1ccccc1)NC(=O)[C@H](CO)NC(=O)[C@H](CC(=O)O)NC(=O)[C@H](CCC(=O)O)NC(=O)[C@H](CO)NC(=O)[C@H](CO)NC(=O)CNC(=O)[C@H](CO)NC(=O)[C@H](CO)NC(=O)[C@H](CC(N)=O)NC(=O)CCCCCNC(=S)Nc1ccc2c(c1)C(=O)OC21c2ccc(O)cc2Oc2cc(O)ccc21)C(C)C)C(=O)N[C@@H](CCCNC(=N)N)C(=O)N[C@@H](CCSC)C(=O)N[C@@H](C)C(=O)N[C@@H](CCC(=O)O)C(=O)O [WT] ({FITC-Ahx}-NSSGSSEDSFVEIRMAE-OH)
kon: 550 M⁻¹ s⁻¹

CC[C@H](C)[C@H](NC(=O)[C@H](CCC(=O)O)NC(=O)[C@@H](NC(=O)[C@H](Cc1ccccc1)NC(=O)[C@H](COP(=O)(O)O)NC(=O)[C@H](CC(=O)O)NC(=O)[C@H](CCC(=O)O)NC(=O)[C@H](CO)NC(=O)[C@H](CO)NC(=O)CNC(=O)[C@H](CO)NC(=O)[C@H](CO)NC(=O)[C@H](CC(N)=O)NC(=O)CCCCCNC(=S)Nc1ccc2c(c1)C(=O)OC21c2ccc(O)cc2Oc2cc(O)ccc21)C(C)C)C(=O)N[C@@H](CCCNC(=N)N)C(=O)N[C@@H](CCSC)C(=O)N[C@@H](C)C(=O)N[C@@H](CCC(=O)O)C(=O)O [pS177] ({FITC-Ahx}-NSSGSSED[pS]FVEIRMAE-OH)
kon: 17800 M⁻¹ s⁻¹
